Measured values reported in patent US8592603B2, “Synthesis of 2-(4-aminophenyl) benzothiazole derivatives and use thereof” (Kaohsiung Medical University, priority 2011, dated 2013).
Each block holds one molecule with its values, some of them ahead of it.

How the values were obtained:
[1] = test system: ERK; experiment: Western blot analysis of MAPK phosphorylation: ERK; assay type: cell-based, human; details: BCC cells, pretreatment 30 min before 4 μM 6f-UVA; oligomycin 25 μM, ATP 1×10^−4M (FIG. 6B)
Method: (A) After exposure to different concentration of 6f-UVA, cell lysates were collected and immunoblotted with specific antibodies as indicated. For the internal control, the same amounts of protein extract were also probed with antibody against actin. (B) As a control, the expression level of p-ERK was determined in the presence of oligomycin (25 μM) and ATP (1×10^−4M)
Total cell extracts from cultured BCC cells were obtained by lysing the cells in ice-cold RIPA buffer (1×PBS, 1% NP-40, 0.5% sodium deoxycholate, 0.1% SDS) containing 100 μg/mL PMSF, 2 μg/mL aprotinin, 2 μg/mL leupeptin and 100 μg/mL NaF. After centrifugation at 14,000 g for 30 min, protein in the supernatants was quantified by Bradford method (Bio-Rad). Forty micrograms of protein per lane was applied in 10% SDS-poly-acrylamide gel. After electrophoresis, protein was transferred from the gel to polyvinylidene difluoride (PVDF) membrane (Millipore, Bedford, Mass.). The membranes were blocked at room temperature for 1 h in PBS+0.1% Tween 20 (PBS-T) containing 5% skim milk. After being briefly rinsed with PBS-T, the blots were probed with respective primary antibodies at room temperature for 2 h or at 4° C. overnight. Rabbit polyclonal antibodies against JNK (46 kDa), p38 (38 kDa), ERK (42, 44 kDa), and mouse monoclonal antibody against p-JNK, p-p38, p-ERK were purchased from Santa Cruz Biotechnology (Santa Cruz, Calif.). Mouse monoclonal antibody against actin was purchased from Chemicon Int. Inc. (Temecula, Calif.). For the blocking test, 25 μM oligomycin (Sigma, a mitochondria-specific F0F1 ATP synthase inhibitor) or 1×10^−4M ATP (Sigma) was added to the media 30 min before treated with 6f-UVA, respectively. The membrane was incubated with the corresponding horseradish peroxidase-labeled secondary antibody (Santa Cruz Biotechnology) at room temperature for 1 h. […] The relative amounts of specific proteins were quantified by densitometry scanning of X-ray films and analyzed by Eagle Eye Image System (Stratagene, La Jolla, Calif.)

[2] = test system: BCC cells; experiment: Sub-G1 region analysis (PI, flow cytometry); assay type: cell-based, human; details: 4 μM for 4 hours, 1 J/cm^2 UVA, 24 h after irradiation
Method: BCC cells were treated with compounds at 4 μM and 1 J/cm^2 UVA. Twenty-four hours after irradiation, cells were harvested by trypsinization and centrifugation. Cell pellets were resuspended in 50% cold ethanol and fixed at −20° C. After fixation, cells were washed once with cold PBS and incubated in 0.5 mL of PBS containing 100 μg/mL RNase A for 20 min at 37° C. Cells were harvested by centrifugation at 400 g for 5 min, and 250 μL of PBS containing 50 μg/mL propidium iodide (PI) was added to the pellet. Thirty minutes later, the DNA contents of 10,000 events were measured by FACSscan flow cytometer (Elite ESP, Beckman Coulter, Brea, Calif.). Histograms were analyzed using Windows Multiple Document Interface software (WinMDI). Cells with DNA content less than that in untreated cells in G0/G1 were considered apoptotic. To investigate the effects of compounds 6 on cell cycle progression of BCC cells, the DNA content of cell nuclei was measured by flow cytometric analysis. […] BCC cells were treated with 4 μM agents for 4 hours followed by 1 J/cm^2 UVA irradiation. Twenty-four hours after irradiation, the PI reagent was used. Approximately 10000 cells from each group were analyzed with the FACScan flow cytometer. The apoptotic effects in 2.2% (control), 6.5% (6a), 13.4% (6b), 29.2% (6c), 24.4% (6d), 6.5% (6e), 35.4% (6f), 13.6% (6g), 13.8% (6h), 14.8% (6i) and 6.4% (6j) of sub-G1 DNA peak were obtained (% represented the percentage of cell counts).

[3] = test system: BCC cells; experiment: Determination of intracellular ROS level (DCFH-DA); assay type: cell-based, human; details: BCC cells treated with 4 μM 6f-UVA, catalase 800 U/mL pretreatment
Method: (A) 6f-UVA induced ROS generation in BCC cells. Histogram of fluorescence vs cell count in BCC cells with various concentrations of 6f-UVA and stained with DCFH-DA. As a control, ROS was measured in the presence of catalase, a H2O2 scavenger. (B) The ΔΨmt of BCC cells after exposure to 6f-UVA. Cells were treated with 0, 2, and 4 μM Formula 6f for 4 h followed by 1 J/cm2 UVA irradiation, then stained with DiOC6 and analyzed immediately by flow cytometry as described under Materials and Methods. The number in M1 indicates the percentage of cells with reduced ΔΨmt. Approximately 10000 cells from each group were analyzed by flow cytometry. (C) Relative ATP levels were calculated as the percentage of the 0 μM level. Similar results were obtained in three independent experiments. *p<0.05, ** p<0.01 as compared with the control.
To evaluate intracellular reactive oxygen species (ROS) levels, 2′,7′-dichlorofluorescein diacetate (DCFH-DA, Molecular Probes) fluorescent dye was used to clarify this issue. The nonpolar DCFH-DA is converted to the polar derivative DCFH by esterases when it is taken up by the cell. DCFH is nonfluorescent but is rapidly oxidized to the highly fluorescent DCF by intracellular H2O2 or nitric oxide. […] The fluorescence of the samples was measured with a flow cytometer. The 2′,7′-dichlorofluorescein (DCF) data were recorded using FL-1 photomultiplier.

Molecule: Nc1ncnc2c1ncn2[C@@H]1O[C@H](COP(=O)(O)OP(=O)(O)OP(=O)(O)O)[C@@H](O)[C@H]1O [ATP]
ERK activation after pretreatment [1]: not ATP increased the ERK activation

melting point: 152 to 154 °C
Molecule: Cc1cc(-c2nc3ccc(C(F)(F)F)cc3s2)ccc1N [Formula 6j, 2-(4-Amino-3-methylphenyl)-6-trifluoromethylbenzothiazole]
sub-G1 DNA peak (apoptotic effects, percentage of cell counts) [2]: 6.4%

Molecule: COc1ccc2nc(-c3ccc(N)cc3)sc2c1 [Formula 6e, 2-(4-Aminophenyl)-6-methoxybenzothiazole]
sub-G1 DNA peak (apoptotic effects, percentage of cell counts) [2]: 6.5%

Molecule: Nc1ccc(-c2nc3ccccc3s2)cc1 [Formula 6a, 2-(4-Aminophenyl)benzothiazole]
sub-G1 DNA peak (apoptotic effects, percentage of cell counts) [2]: 6.5%

Molecule: CC[C@H]1/C=C/C=C/C[C@@H](C)[C@H](O)[C@@](C)(O)C(=O)[C@@H](C)[C@H](O)[C@@H](C)C(=O)[C@@H](C)[C@H](O)[C@@H](C)/C=C/C(=O)O[C@@H]2[C@H](C)[C@H](CC1)O[C@]1(CC[C@H](C)[C@H](C[C@@H](C)O)O1)[C@H]2C [oligomycin]
ERK activation after pretreatment [1]: increased the ERK activation

Molecule: Cc1cc(-c2nc3ccccc3s2)ccc1N [Formula 6g, 2-(4-Amino-3-methylphenyl)benzothiazole]
sub-G1 DNA peak (apoptotic effects, percentage of cell counts) [2]: 13.6%

melting point: 154 to 156 °C
Molecule: CCc1ccc2nc(-c3ccc(N)cc3)sc2c1 [Formula 6c, 2-(4-Aminophenyl)-6-ethylbenzothiazole]
sub-G1 DNA peak (apoptotic effects, percentage of cell counts) [2]: 29.2%

melting point: 151 to 153 °C
Molecule: COc1ccc2nc(-c3ccc(N)c(C)c3)sc2c1 [Formula 6i, 2-(4-Amino-3-methylphenyl)-6-methoxybenzothiazole]
sub-G1 DNA peak (apoptotic effects, percentage of cell counts) [2]: 14.8%

Molecule: Cc1ccc2nc(-c3ccc(N)cc3)sc2c1 [Formula 6b, 2-(4-Aminophenyl)-6-methylbenzothiazole]
sub-G1 DNA peak (apoptotic effects, percentage of cell counts) [2]: 13.4%

melting point: 171 to 173 °C
Molecule: CCc1ccc2nc(-c3ccc(N)c(C)c3)sc2c1 [Formula 6h, 2-(4-Amino-3-methylphenyl)-6-ethylbenzothiazole]
sub-G1 DNA peak (apoptotic effects, percentage of cell counts) [2]: 13.8%

melting point: 142 to 144 °C
Molecule: COc1cccc2nc(-c3ccc(N)cc3)sc12 [Formula 6d, 2-(4-Aminophenyl)-7-methoxybenzothiazole]
sub-G1 DNA peak (apoptotic effects, percentage of cell counts) [2]: 24.4%

B1: catalase: an effective H2O2 scavenger (Sigma) (protein, UniProt P00432 2-527, looked up)
Catalase: ADNRDPASDQMKHWKEQRAAQKPDVLTTGGGNPVGDKLNSLTVGPRGPLLVQDVVFTDEMAHFDRERIPERVVHAKGAGAFGYFEVTHDITRYSKAKVFEHIGKRTPIAVRFSTVAGESGSADTVRDPRGFAVKFYTEDGNWDLVGNNTPIFFIRDALLFPSFIHSQKRNPQTHLKDPDMVWDFWSLRPESLHQVSFLFSDRGIPDGHRHMNGYGSHTFKLVNANGEAVYCKFHYKTDQGIKNLSVEDAARLAHEDPDYGLRDLFNAIATGNYPSWTLYIQVMTFSEAEIFPFNPFDLTKVWPHGDYPLIPVGKLVLNRNPVNYFAEVEQLAFDPSNMPPGIEPSPDKMLQGRLFAYPDTHRHRLGPNYLQIPVNCPYRARVANYQRDGPMCMMDNQGGAPNYYPNSFSAPEHQPSALEHRTHFSGDVQRFNSANDDNVTQVRTFYLKVLNEEQRKRLCENIAGHLKDAQLFIQKKAVKNFSDVHPEYGSRIQALLDKYNEEKPKNAVHTYVQHGSHLSAREKANL
effect of catalase on increased ROS production [3]: significantly abrogated
